Test results reported in US6515012B2, “Process for the preparation of zofenopril calcium salt” (Menarini Ricerche S.p.A., priority 1998, dated 2003).
Where a name gives a salt, the structure may show the parent alone.

Columns and labels:
[1] = Stability to micronisation of Polymorphs (grinding in ball microniser, DRX); type: physicochemical; conditions: Retsch MM2 ball microniser, 200 mg sample, 80 vibrations/min, 15 minutes
[2] = tablets prepared with polymorph A or with polymorph B; J. Pharmaceutical & Biomedical Analysis, 1994, Vol 12, pp. 173-177; cited from earlier work
[3] = resistance to compression and/or micronisation; type: physicochemical; conditions: polymorph A compared with polymorph B
[4] = storage stability of zofenopril calcium salt samples (interconversion to polymorph B, by DRX); type: physicochemical
Description: Determination of polymorph B in the samples of Polymoroh A : The percentage of polymorph B in samples of Polymorph A can easily be evaluated by observation of the X diffractograms (DRX). The region used for the analysis was that for 2θ ranging from 15 to 25. In this region, three peaks were evidenced, respectively I with […], II with 2θ=19.2 and III with 20θ=19.9, and the relative intensities I/III and II/III of various Polymorph A samples containing known amounts of Polymorph B (not above 30%) were measured. A regression equation was thereby obtained, which correlates the intensities of peaks I and II relating to peak III with the percentage of polymorph B present in the samples. The precision and the accuracy of the results obtainable with the above mentioned equation were good and, based on the confidence limits, the minimum amount of polymorph B detectable in polymorph A could be evaluated to be <7%. FIG. 4 reports the relationship between the above mentioned values based on the thus calculated regression equation and the observed values.

SMILES	crystalline structure after grinding, according to DRX [1]	dissolution rate of tablets [2]	resistance to compression and/or micronisation [3]	interconversion to polymorph B ([4]; samples obtained according to the process of the invention)	percentage of polymorph B after storage ([4]; stored for 3 years at 25° C. and 60% relative humidity)	percentage of polymorph B after storage ([4]; stored for 6 months at 40° C. and 75% relative humidity)
C[C@H](CSC(=O)c1ccccc1)C(=O)N1C[C@@H](Sc2ccccc2)C[C@H]1C(=O)O [polymorph A]	still keeps the crystalline structure	could not be differentiated	more resistant to compression and/or micronisation than polymorph B			
C[C@H](CSC(=O)c1ccccc1)C(=O)N1C[C@@H](Sc2ccccc2)C[C@H]1C(=O)O [polymorph B]	completely loses its crystalline structure	could not be differentiated				
C[C@H](CSC(=O)c1ccccc1)C(=O)N1C[C@@H](Sc2ccccc2)C[C@H]1C(=O)O [zofenopril calcium salt, [(4S)-(2S)-3-(benzoylthio)-2-methylpropionyl-4 (phenylthio)-L-proline] calcium salt]				no interconversion to polymorph B	below 7%	below 7%
